pIC50: −log10 of the molar value.
What was measured:
[1] = target: T1, NPC2 (Homo sapiens, UniProt P61916); experiment: competition (chase) of CQ-X photo-cross-linking in cells; type: cell-based
T1 construct: endogenous, A549 cells
T1 sequence (P61916 20-151): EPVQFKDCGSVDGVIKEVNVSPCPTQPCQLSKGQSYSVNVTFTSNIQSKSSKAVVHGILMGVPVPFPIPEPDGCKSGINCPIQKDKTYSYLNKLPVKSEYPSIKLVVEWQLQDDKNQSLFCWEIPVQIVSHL

[2] = target: T2, Cathepsin L (CTSL) (Homo sapiens, UniProt P07711); experiment: Z-FR-AMC fluorogenic cleavage assay, pH […]; supported by intrinsic fluorescence of CTSL-Flag and CQ-X chase; type: biochemical
T2 construct: commercial purified CTSL (BPS Biosciences kit); CTSL-Flag-Myc purified from HEK-293T for intrinsic fluorescence
T2 sequence (P07711 114-288): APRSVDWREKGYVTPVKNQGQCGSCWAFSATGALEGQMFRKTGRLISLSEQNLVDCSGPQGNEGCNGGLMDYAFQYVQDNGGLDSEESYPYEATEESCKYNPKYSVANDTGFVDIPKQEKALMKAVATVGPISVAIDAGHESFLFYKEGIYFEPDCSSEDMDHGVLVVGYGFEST
T2 sequence (P07711 292-333): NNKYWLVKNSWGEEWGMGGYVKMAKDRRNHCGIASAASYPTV

`CCN(CC)CCCC(C)Nc1ccnc2cc(Cl)ccc12` (centres unmarked) [CQ, chloroquine] was tested, and the “competition (chase) of CQ-X photo-cross-linking in cells” value [1] was “The results confirmed that chloroquine could bind to NPC2 and CTSL” and the pIC50 [2] was 3.74.

Reference: publication PMC10214525, “A Turn-On Fluorescent Amino Acid Sensor Reveals Chloroquine’s Effect on Cellular Amino Acids via Inhibiting Cathepsin L” (ACS Central Science, 2023)
